From patent US3960837A, “Polyamine compounds and methods for their production” (Parke, Davis & Company, priority 1974, dated 1976)

Tests used:
Format in all cases: cell-based
Serratia marcescens = experiment: in vitro antibacterial screening, minimal inhibitory concentration, Serratia marcescens; conditions: Serratia marcescens (1 strain); Tryptic Soy broth; free base equivalent
Text: (§1) Aminotrideoxybutirosin A and its acid-addition salts posses antibacterial activity. They show activity when tested by well-recognized in vitro antibacterial screening procedures. […] Where more than a single strain of test organism is indicated an average or approximate minimal inhibitory concentration is given.

Pseudomonas aeruginosa = experiment: in vitro antibacterial screening, minimal inhibitory concentration, Pseudomonas aeruginosa; conditions: Pseudomonas aeruginosa (6 strains), average or approximate; Tryptic Soy broth; free base equivalent
Text: as §1

Escherichia coli = experiment: in vitro antibacterial screening, minimal inhibitory concentration, Escherichia coli; conditions: Escherichia coli (1 strain); Tryptic Soy broth; free base equivalent
Text: as §1

Enterobacter cloacae = experiment: in vitro antibacterial screening, minimal inhibitory concentration, Enterobacter cloacae; conditions: Enterobacter cloacae (1 strain); Tryptic Soy broth; free base equivalent
Text: as §1

Klebsiella pneumoniae = experiment: in vitro antibacterial screening, minimal inhibitory concentration, Klebsiella pneumoniae; conditions: Klebsiella pneumoniae (1 strain); Tryptic Soy broth; free base equivalent
Text: as §1

[1] = test system: Pseudomonas aeruginosa Aquilar; experiment: in vitro antibacterial screening, minimal inhibitory concentration, Pseudomonas aeruginosa Aquilar (butirosin resistant strain); conditions: Pseudomonas aeruginosa Aquilar (1 strain), Tryptic Soy broth, free base equivalent
Text: as §1
(§2) *Butirosin resistant strain

Staphylococcus aureus = experiment: in vitro antibacterial screening, minimal inhibitory concentration, Staphylococcus aureus (butirosin resistant strain); conditions: Staphylococcus aureus (1 strain), Tryptic Soy broth, free base equivalent
Text: as §1, §2

Compound: NCC[C@H](O)C(=O)N[C@@H]1C[C@H](N)[C@@H](O[C@H]2O[C@H](CN)CC[C@H]2N)[C@H](O[C@@H]2O[C@H](CN)[C@H](O)[C@H]2O)[C@H]1O [Aminotrideoxybutirosin A, O-2,6-Diamino-2,3,4,6-tetradeoxy-α-D-erythro-hexopyranosyl-(1→4)-O-[5-amino-5-deoxy-β-D-xylofuranosyl-(1→5)]-N^1-[(S)-4-amino-2-hydroxy-1-oxobutyl]-2-deoxystreptamine]
- MIC (Serratia marcescens): 12.5 µg/mL
- MIC (Pseudomonas aeruginosa): 3.6 µg/mL
- MIC (Escherichia coli): 12.5 µg/mL
- MIC (Enterobacter cloacae): 6.3 µg/mL
- MIC (Klebsiella pneumoniae): 6.3 µg/mL
- MIC [1]: 6.3 µg/mL
- MIC (Staphylococcus aureus): 3.1 µg/mL

Compound: Butirosin
- Minimal Inhibitory Concentration (Serratia marcescens): 25 micrograms/ml
- Minimal Inhibitory Concentration (Pseudomonas aeruginosa): 19.8 micrograms/ml
- Minimal Inhibitory Concentration (Escherichia coli): > 200 micrograms/ml
- Minimal Inhibitory Concentration (Enterobacter cloacae): 6.3 micrograms/ml
- Minimal Inhibitory Concentration (Klebsiella pneumoniae): 6.3 micrograms/ml
- Minimal Inhibitory Concentration [1]: > 200 micrograms/ml
- Minimal Inhibitory Concentration (Staphylococcus aureus): 50 micrograms/ml
